Papp and solubility data for 25 compounds are collected here from ChEMBL document CHEMBL1157785, “Identification of 4,5-dihydro-1H-pyrazolo[4,3-h]quinazoline derivatives as a new class of orally and selective Polo-like kinase 1 inhibitors” (J Med Chem, 2010).

≈ marks a conversion by molar mass, not a printed value.

The first data set can be described thus: Apparent permeability across human Caco-2 cell membrane at 10 uM after 120 mins by LC-MS/MS analysis.
Settings: not given
The format is ADME, cell-based. For orientation: Passage across Caco-2 layers is used to estimate intestinal permeability.
In the case of `Cn1nc(C(N)=O)c2c1-c1nc(Nc3ccccc3)ncc1CC2`, the Papp – broadly, the rate of passage across a membrane or cell layer, normalised by area and donor concentration – at 2 h, 10 µM turned out to be 58.3 ×10⁻⁶ cm/s.
In the case of `Cn1nc(C(=O)O)c2c1-c1nc(Nc3ccccc3)ncc1CC2`, the Papp at 2 h, 10 µM came to 2.7 ×10⁻⁶ cm/s.

A further data set is described as follows: Solubility at pH 7 after 24 hrs by LC-MS/MS analysis. The format is physicochemical. Particulars: buffer.
In the case of `Cn1nc(C(N)=O)c2c1-c1nc(Nc3ccccc3C(F)(F)F)ncc1CC2`, the solubility (as a rule, how much of the substance goes into solution per volume) at 24 h turned out to be 4 µM (≈ 1.55 µg/mL).
On the same count and under the same terms, to `CC(=O)c1ccccc1Nc1ncc2c(n1)-c1c(c(C(N)=O)nn1C)CC2` belongs 2 µM (≈ 0.725 µg/mL).
Same read-out and setting: the result for `Cn1nc(C(N)=O)c2c1-c1nc(Nc3ccccc3C(=O)c3ccccc3)ncc1CC2` reads less than 1 µM; that for `Cn1nc(C(N)=O)c2c1-c1nc(Nc3ccccc3N)ncc1CC2`, 190 µM (≈ 63.7 µg/mL).
On the same count and under the same terms, the result for `COC(=O)c1ccccc1Nc1ncc2c(n1)-c1c(c(C(N)=O)nn1C)CC2` reads 2 µM (≈ 0.757 µg/mL); that for `Cn1nc(C(N)=O)c2c1-c1nc(Nc3ccccc3-c3ccccc3)ncc1CC2`, less than 1 µM.
On to `CSc1ccccc1Nc1ncc2c(n1)-c1c(c(C(N)=O)nn1C)CC2`, for which the concentration in solution (solubility at 24 h) came to 2 µM (≈ 0.733 µg/mL).
On the same count and under the same terms, the result for `CNc1ccccc1Nc1ncc2c(n1)-c1c(c(C(N)=O)nn1C)CC2` reads 23 µM (≈ 8.04 µg/mL); that for `Cn1nc(C(N)=O)c2c1-c1nc(Nc3ccccc3S(N)(=O)=O)ncc1CC2`, 4 µM (≈ 1.6 µg/mL); that for `Cn1nc(C(N)=O)c2c1-c1nc(Nc3ccccc3Cc3ccccc3)ncc1CC2`, less than 1 µM.
Still for that read-out and setting: the result for `CC(=O)c1c(Nc2ncc3c(n2)-c2c(c(C(N)=O)nn2C)CC3)cccc1N1CCN(C)CC1` reads 170 µM (≈ 78.3 µg/mL); that for `COc1cc(N2CCN(C)CC2)ccc1Nc1ncc2c(n1)-c1c(c(C(N)=O)nn1C)CC2`, greater than 225 µM.
Still for that read-out and setting: to `Cn1nc(C(N)=O)c2c1-c1nc(Nc3ccccc3Oc3ccccc3)ncc1CC2` belongs less than 1 µM; to `Cn1nc(C(N)=O)c2c1-c1nc(Nc3ccccc3Nc3ccccc3)ncc1CC2`, less than 1 µM.
Take `Cn1nc(C(N)=O)c2c1-c1nc(Nc3ccccc3C(N)=O)ncc1CC2`: the solubility at 24 h is less than 1 µM.
`Cc1ccccc1Nc1ncc2c(n1)-c1c(c(C(N)=O)nn1C)CC2` displayed a solubility at 24 h of 3 µM (≈ 1 µg/mL).
On the same count and under the same terms, the result for `CC(=O)c1cc(N2CCN(C)CC2)ccc1Nc1ncc2c(n1)-c1c(c(C(N)=O)nn1C)CC2` reads 83 µM (≈ 38.2 µg/mL).
On the same count and under the same terms, to `Cn1nc(C(N)=O)c2c1-c1nc(Nc3ccccc3Sc3ccccc3)ncc1CC2` belongs less than 1 µM.
The same measure, in the same setting: to `CC(=O)c1ccc(N2CCN(C)CC2)cc1Nc1ncc2c(n1)-c1c(c(C(N)=O)nn1C)CC2` belongs 18 µM (≈ 8.29 µg/mL); to `CC(=O)Nc1ccccc1Nc1ncc2c(n1)-c1c(c(C(N)=O)nn1C)CC2`, 16 µM (≈ 6.04 µg/mL).
The compound `Cn1nc(C(N)=O)c2c1-c1nc(Nc3ccccc3F)ncc1CC2` had a solubility at 24 h of 3 µM (≈ 1.02 µg/mL).
Still for that read-out and setting: the result for `COc1ccccc1Nc1ncc2c(n1)-c1c(c(C(N)=O)nn1C)CC2` reads 3 µM (≈ 1.05 µg/mL); that for `Cn1nc(C(N)=O)c2c1-c1nc(Nc3ccccc3)ncc1CC2`, 3 µM (≈ 0.961 µg/mL); that for `CC(C)c1ccccc1Nc1ncc2c(n1)-c1c(c(C(N)=O)nn1C)CC2`, 2 µM (≈ 0.725 µg/mL).
